Data as given in EPA's ToxValDB 9.5.

Columns and labels:
Gallus gallus = conditions: oral, diet
[1] = subchronic, duration: 90 days, oral, diet, M/F, Sprague-Dawley, no effects
[2] = subchronic, duration: 90 days, oral
[3] = subchronic, duration: 13 weeks, oral, diet, M/F, no effects

Q: `C=CC(C)(O)C/C=C/C(=C)C` (stereo not given) [(E)-3,7-Dimethylocta-1,5,7-trien-3-ol] was tested. Which NOAEL (Rattus norvegicus; [1]) did it give?
A: 44 mg/kg-day

Q: Which NOAEL (Rattus norvegicus; [2]) does the source give for `C=CCSC(=O)CCCCC` [Allyl thiohexanoate] here?
A: 6.63 mg/kg-day

Q: With `CSc1ccccc1` [Benzene, (methylthio)-] as the molecule, how does the NOAEL (Rattus norvegicus; [2]) read?
A: 0.43 mg/kg-day

Q: `Cc1occc1SSc1ccoc1C` [Bis(2-methyl-3-furyl)disulfide] was tested. Which NOAEL (Rattus norvegicus; subchronic, duration: 90 days, oral, diet, M/F, Wistar, no effects) did it give?
A: 0.45 mg/kg-day

Q: What about the NOAEL (Rattus norvegicus; subchronic, duration: 90 days, oral, diet, Wistar, no effects) of the same molecule?
A: 0.45 mg/kg-day

Q: For `CC(C)(c1ccc(OCC2CO2)cc1)c1ccc(OCC2CO2)cc1` (stereo not given) [Bisphenol A diglycidyl ether], which NOAEL (Rattus norvegicus; chronic, duration: 2 years, oral, gavage, M/F, Fischer 344, organ weight) is on record?
A: 15 mg/kg-day

Q: How did the NOAEL (Rattus norvegicus; developmental, oral, Sprague-Dawley, development) turn out when `COc1ccc(O)c(C(C)(C)C)c1` [Butylated hydroxyanisole] was run?
A: 100 mg/kg-day

Q: `CCCCOC(=O)c1ccccc1C(=O)OCCCC` [Dibutyl 1,2-benzenedicarboxylate] was tested. Which LOAEL (Rattus norvegicus; reproduction developmental, oral, F, histopathology: nonneoplastic) did it give?
A: 2 mg/kg-day

Q: With `CC(C)SSSC(C)C` [Diisopropyl trisulfide] as the molecule, how does the NOEL (Rattus norvegicus; subchronic, duration: 13 weeks, oral, gavage) read?
A: 4.8 mg/kg-day

Q: With `CS(C)=O` [Dimethyl sulfoxide] as the molecule, how does the NOAEL (Rattus norvegicus; repeat dose other, oral, gavage, F, no effects) read?
A: 1000 mg/kg-day

Q: With `C[N+](C)(C)[C@@H](Cc1c[nH]c(=S)[nH]1)C(=O)[O-]` [Ergothioneine] as the molecule, how does the NOEL (Rattus norvegicus; reproduction developmental, duration: 13 weeks, oral, diet, M/F, Sprague-Dawley, no effects) read?
A: 725 mg/kg-day

Q: And the NOAEL (Rattus norvegicus; short-term, duration: 28 days, oral, gavage, M/F, Sprague-Dawley, hematological)?
A: 800 mg/kg-day

Q: For `CCCCCCCCCCCC(=O)N[C@@H](CCCN=C(N)N)C(=O)OCC.Cl` [Ethyl-N2-dodecanoyl-L-argininate hydrochloride], which NOAEL (Rattus norvegicus; subchronic, duration: 13 weeks, oral, M/F, Sprague-Dawley, clinical chemistry) is on record?
A: 47 mg/kg-day

Q: `CCN(Cc1cccc(S(=O)(=O)[O-])c1)c1ccc(C(=C2C=CC(=[N+](CC)Cc3cccc(S(=O)(=O)[O-])c3)C=C2)c2ccccc2S(=O)(=O)[O-])cc1.[Na+].[Na+]` [FD&C Blue No. 1] was tested. Which NOAEL (Rattus norvegicus; chronic, duration: 30 months, oral, diet, M/F, mortality) did it give?
A: 631 mg/kg-day

Q: And the NOAEL (Rattus norvegicus; chronic, other)?
A: 631 mg/kg-day

Q: How did the LD50 (Rattus norvegicus; acute, oral, M/F, mortality) turn out when `NCC(=O)[O-].NCC(=O)[O-].[Fe+2]` [Ferrous bisglycinate] was run?
A: 2800 mg/kg-day

Q: And the NOAEL (Rattus norvegicus; subchronic, duration: 13 weeks, oral, Sprague-Dawley, no effects)?
A: 500 mg/kg-day

Q: For `C=O` [Formaldehyde], which LEL (Gallus gallus; short-term, duration: 28 days, no effects) is on record?
A: 990 mg/kg-day

Q: What about the NOAEL (Rattus norvegicus; chronic, duration: 104 weeks, oral, drinking water, M/F, Wistar, histopathology: nonneoplastic) of the same molecule?
A: 15 mg/kg-day

Q: Which NOEL (Rattus norvegicus; subchronic, duration: 90 days, oral, diet, M/F, Fischer 344, hematological) does the source give for `CCOC(OCC)c1ccco1` [Furan, 2-(diethoxymethyl)-] here?
A: 54 mg/kg-day

Q: `CC(C=O)c1ccccc1` (stereo not given) [Hydratropaldehyde] was tested. Which NOAEL (Rattus norvegicus; chronic, duration: 15 weeks, oral, gavage, M/F, organ weight) did it give?
A: 50 mg/kg-day

Q: For `NCCCC[C@H](N)C(=O)O.O=S(=O)(O)O` [L-Lysine sulphate], which LEL (Rattus norvegicus; subchronic, duration: 90 days, oral, gavage, M/F, Sprague-Dawley, histopathology: neoplastic) is on record?
A: 1000 mg/kg-day

Q: Which NOAEL (Rattus norvegicus; short-term, duration: 28 days, oral, M/F, histopathology: nonneoplastic) does the source give for `C=CC(C)(O)CCC=C(C)C` (stereo not given) [Linalool] here?
A: 117 mg/kg-day

Q: `COC(=O)c1cc(Cl)ccc1Cl` [Methyl 2,5-dichlorobenzoate] was tested. Which NOAEL (Rattus norvegicus; short-term, duration: 28 days, oral, clinical signs) did it give?
A: 100 mg/kg-day

Q: `CNc1ccccc1C(=O)OC` [Methyl N-methylanthranilate] was tested. Which NOAEL (Rattus norvegicus; subchronic, duration: 90 days, organ weight) did it give?
A: 20 mg/kg-day

Q: With `COC(=O)c1ccccc1O` [Methyl salicylate] as the molecule, how does the NOAEL (Canidae; chronic, duration: 2 years, Dog Other) read?
A: 50 mg/kg-day

Q: And the NOAEL (Rattus norvegicus; chronic, duration: 2 years, oral, growth)?
A: 50 mg/kg-day

Q: For `COC(=O)CSCc1ccco1` [Methyl {[(furan-2-yl)methyl]sulfanyl}acetate], which NOAEL (Rattus norvegicus; subchronic, duration: 90 days, oral, diet, M/F, clinical chemistry) is on record?
A: 5.78 mg/kg-day

Q: `C=CC(=C)CCC=C(C)C` [Myrcene] was tested. Which NOAEL (Rattus norvegicus; [1]) did it give?
A: 44 mg/kg-day

Q: For `C[C@@H]1O[C@@H](O[C@H]2[C@H](Oc3cc(O)c4c(c3)O[C@H](c3ccc(O)cc3)CC4=O)O[C@H](CO)[C@@H](O)[C@@H]2O)[C@H](O)[C@H](O)[C@H]1O` [Naringin], which NOAEL (Rattus norvegicus; chronic, duration: 400 days, oral, diet, food consumption) is on record?
A: 1250 mg/kg-day

Q: With `O=C(O)c1cc(=O)[nH]c(=O)[nH]1` [Orotic acid] as the molecule, how does the NOAEL (Rattus norvegicus; chronic, duration: 20 weeks, oral, diet, histopathology: neoplastic) read?
A: 50 mg/kg-day

Q: Which NOAEL (Rattus norvegicus; subchronic, duration: 90 days, oral, diet, M/F, Crj:CD, clinical chemistry) does the source give for `O=C(/C=C/C=C/c1ccc2c(c1)OCO2)N1CCCCC1` [Piperine] here?
A: 5 mg/kg-day

Q: `O=Cc1ccc2c(c1)OCO2` [Piperonal] was tested. Which NOAEL (Rattus norvegicus; chronic, duration: 2 years) did it give?
A: 250 mg/kg-day

Q: `SCCc1cnccn1` [Pyrazineethanethiol] was tested. Which NOAEL (Rattus norvegicus; [3]) did it give?
A: 1.63 mg/kg-day

Q: With `CSc1cnccn1` [Pyrazinyl methyl sulfide] as the molecule, how does the NOAEL (Rattus norvegicus; [3]) read?
A: 1.63 mg/kg-day

Q: With `CCSC(C)=O` [S-Ethyl thiolacetate] as the molecule, how does the NOEL (Rattus norvegicus; subchronic, duration: 13 weeks, oral, diet) read?
A: 6.5 mg/kg-day

Q: How did the LEL (Gallus gallus; subchronic, duration: 39 days, M/F, food consumption) turn out when `CN(C)CC(=O)O.[H-].[Na+]` [Sodium N,N-dimethylglycinate] was run?
A: 10000 mg/kg-day

Q: Which NOAEL (Rattus norvegicus; chronic, duration: 2 years, oral, drinking water, M/F, Fischer 344, body weight) does the source give for `O=C1O[C@H]([C@H](O)CO)C([O-])=C1O.[Na+]` [Sodium erythorbate] here?
A: 650 mg/kg-day

Q: With `[Na+].[Na+].[O-]B1OB2OB([O-])OB(O1)O2` [Sodium tetraborate (Na2B4O7)] as the molecule, how does the NOAEL (Rattus norvegicus; developmental, duration: 20 days, F, Sprague-Dawley, development) read?
A: 55 mg/kg-day

Q: With `OC[C@H]1O[C@@H]2O[C@H]3[C@H](O)[C@@H](O)[C@@H](O[C@H]4[C@H](O)[C@@H](O)[C@@H](O[C@H]5[C@H](O)[C@@H](O)[C@@H](O[C@H]6[C@H](O)[C@@H](O)[C@@H](O[C@H]7[C@H](O)[C@@H](O)[C@@H](O[C@H]1[C@H](O)[C@H]2O)O[C@@H]7CO)O[C@@H]6CO)O[C@@H]5CO)O[C@@H]4CO)O[C@@H]3CO` [alpha-Cyclodextrin] as the molecule, how does the NOAEL (Canidae; subchronic, duration: 90 days, oral, diet, M/F, Beagle, no effects) read?
A: 10000 mg/kg-day
